Test [1] relates to Mus musculus. Description: Dose required to induce hypercalcemia after administration in mice. In kind it is functional.
The nature of test [2]: Dose required to inhibit proliferation of human peripheral blood mononuclear cells (PMBC). In kind it is functional.
The subject of test [3] is HL-60. Briefly: Dosage required for differentiation of HL-60 cells to monocytes. In kind it is functional, Homo sapiens.

Take `C=C1/C(=C\C=C2/CCC[C@]3(C)[C@@H]([C@H](C)CCCC(C)(C)O)CC[C@@H]23)C[C@@H](O)C[C@@H]1O` [CALCITRIOL]: the Dose in test [1] was 0.1 µg/kg.

For the compound `C=C1/C(=C\C=C2/CCC[C@]3(C)[C@@H]2CC[C@H]3[C@@H](C)CCCC(C)(C)O)C[C@@H](O)C[C@@H]1O`, the Dose in test [2] and in test [3] was 100 nM throughout.

The values are drawn from ChEMBL document CHEMBL1134051, “Synthesis and biological activity of the 1alpha,25-dihydroxyvitamin D3 diastereomer with unnatural configuration at the rings C/D side-chain moiety” (2001).
